Reference: patent US4916149A, “Diuretic and saluretic 4-chloro-3-sulfamoylbenzoic acid hydrazides” (Chinoin Gyogyszer es Vegyeszeti Termekek Gyara Rt., priority 1987, dated 1990)
Values joined by “and” are separate entries in the source; they are usually repeats but may differ in a detail not shown here. Equal entries are not always repeated. Where two headings read alike, the source gives them in different places.

Experiments:
[1] = Saluretic/diuretic screening in rats (method of Lipschitz as modified by Kagawa and Kahn); format: in vivo, male LATI CFY rats; details: for response vs control in vivo at 5 mg/kg: Rattus norvegicus; for response vs control in vivo at 5 mg/kg / Na/K ratio of the urine discharged: single oral dose (5 mg/kg oral screen dose), 24 hours; for Na/K ratio of the urine discharged: control 3.0
Method: The compounds of the present invention were compared with Dihydrochlorothiazide and Furosemide in rats by administration of a 5 mg/kg oral screen dose.
The screening tests were carried out on male LATI CFY rats having an average body-weight of 240 g. The animals were kept on standard rat food and starved for 16 hours before the experiment but they received water ad libitum. For evaluation of the diuretic effect, the method of Lipschitz as modified by Kagawa and Kahn [Arch. Int. Pharmacodyn. 137, 241 (1962)] was used.
Effect of a single oral dose of the compounds according to the invention on water, sodium and potassium diuresis during 24 hours as percentage of the simultaneously measured control values as well as their effect on the Na/K ratio of the urine discharged

[2] = Saluretic effect in dogs (urine volume, Na and K, 0-7 and 7-24 hours); format: in vivo, perineotomized female dogs
Method: The compound described in Example 1 was studied also on perineotomized female dogs. […] For adaptation, starting from the 4th week following the operation, the urinary bladder of the animals was evacuated by a catheter or treated with saline via a gastric tube. During the experiment, the dogs were kept on a standard food and they received water ad libitum. On the days of the experiements, the dogs were fasted and received only 20 ml/kg of water. Sodium in an 7.7 mmol/kg and potassium in an amount of 6.02 mmol/kg were introduced with the food.
On the day of the experiment, the bladder of the animals was evacuated and a blood sample was taken from the leg vein, then a solution of the diuretic and solvent to the controls, respectively were administered in a dose of 10 ml/kg via a gastric tube. The animals were placed separately in metabolic cages. After 7 and 24 hours, respectively the bladder of the animals was catheterized and the urine was collected by washing the metabolic cage. After 24 hours following the catheterization, a blood sample was taken again.
In addition to the discharged volume, the Na^+ and K^+ content of the urine as well as the glucose and cholesterol level of the serum were determined.

[3] = Antihypertensive activity in spontaneously hypertensive (SH) rats, systolic blood pressure; format: in vivo, spontaneously hypertensive (SH) male Okamoto rats
Method: […] A hypotension of 21.1% was induced by the compound of Example 1 by 12 hours after administration.
These investigations were carried but in spontaneously hypertensive (SH) male Okamoto rats. At least one week before starting the experiment, the animals had individually been maintained in cages and received water and semisynthetic rat food ad libitum. In the same time of each day, the blood pressure of each animal was measured and gastric tubing was carried out while immobilizing the animals. Animals with a blood pressure below 170 Hgmm were excluded from the experiment. Based on the daily determined blood pressure values, the animals were divided to experimental groups having a nearly equal average blood pressure and deviation.
At the beginning of the experiment, the animals were given 0.2 ml/100 g of a solution containing the test compound, and 1 ml/100 g of Furosemide solution, respectively. Animal groups treated with physiological saline solution and solvent, respectively were also investigated in each experiment.
Before measuring the blood pressure, the animals were put into a light-insulated sound-proof chamber then immobilized. An inflatable rubber cuff was placed on their tail root (onto the same site in each case) which was connected with a manometer.
The material and diameter of the tail cuff was standardized. The measurement was carried out according to the Riva-Rocci principle. For determining the systolic blood pressure, the palpitation method was used. The heart rate was evaluated by a piezoelektric crystal put onto the rubber ring. The blood pressure measurement of each animal was started by 2 minutes following the immobilization, repeated in every 30 seconds and usually, the values several times repeatedly observed were accepted.
Effect of a single oral dose of the compound of Example 1 or Furosemide, respectively on the systolic blood pressure of SH rats

[4] = Glucose tolerance, serum uric acid and cholesterol; format: in vivo
[5] = read-out: K (potassium) diuresis, percentage of the simultaneously measured control values
[6] = read-out: Na (sodium) diuresis, percentage of the simultaneously measured control values
[7] = read-out: Water diuresis, percentage of the simultaneously measured control values
[8] = single oral dose 5 mg/kg, before treatment 216 mmHg
[9] = single oral dose 100 mg/kg, before treatment 201 mmHg

Row | Structure (SMILES) | response vs control in vivo at 5 mg/kg [1, 5] [%] | response vs control in vivo at 5 mg/kg [1, 6] [%] | response vs control in vivo at 5 mg/kg [1, 7] [%] | Na/K ratio of the urine discharged [1] | also measured
1 | Cc1nc2cc(C(=O)O)ccc2n1NC(=O)c1ccc(Cl)c(S(N)(=O)=O)c1 [Example 16, 1-(4'-chloro-3'-sulfamoylbenzoyl)amino-5-carboxy-2-methylbenzimidazole] | 109 | 117 | 111 | 3.3 | 
2 | NS(=O)(=O)c1cc2c(cc1Cl)NCNS2(=O)=O [Hypothiazide, reference compound] | 114 | 129 | 124 | 3.5 | diuretic effect in 7 hours' period ([2]; 7 hours' period after administration): low
3 | Cc1nc2ccccc2n1NC(=O)c1ccc(Cl)c(S(N)(=O)=O)c1 [Example 23, 1-(4'-chloro-3'-sulfamoylbenzoyl)amino-2-methylbenzimidazole] | 102 | 105 | 98 | 4.0 | 
4 | NS(=O)(=O)c1ccc2c(c1)[nH]c(=S)n2NC(=O)c1ccc(Cl)c(S(N)(=O)=O)c1 [Example 24, 1-(4'-chloro-3'-sulfamoylbenzoyl)amino-5-sulfamoylbenzimidazole-2-thione] | 104 | 104 | 108 | 3.9 | 
5 | NS(=O)(=O)c1cc(C(=O)Nn2cnc3ccccc32)ccc1Cl [Example 22, 1-(4'-chloro-3'-sulfamoylbenzoyl)-aminobenzimidazole] | 103 | 99 | 107 | 3.7 | 
6 | NS(=O)(=O)c1cc(C(=O)Nn2cnc3cc(C(=O)O)ccc32)ccc1Cl [Example 19, 1-(4'-chloro-3'-sulfamoylbenzoyl)amino-5-carboxybenzimidazole] | 120 | 121 | 117 | 3.1 | 
7 | Cc1nc2cc(C(F)(F)F)ccc2n1NC(=O)c1ccc(Cl)c(S(N)(=O)=O)c1 [Example 27, 1-(4'-chloro-3'-sulfamoylbenzoyl)amino-2-methyl-5-trifluoromethylbenzimidazole] | 85 | 94 | 95 | 4.3 | 
8 | CSc1nc2cc(C(=O)O)ccc2n1NC(=O)c1ccc(Cl)c(S(N)(=O)=O)c1 [Example 9, 1-(4'-chloro-3'-sulfamoylbenzoyl)-amino-5-carboxy-2-methylthiobenzimidazole] | 95 | 105 | 99 | 3.4 | 
9 | NS(=O)(=O)c1cc(C(=O)Nn2c(-c3ccccc3)nc3cc(C(F)(F)F)ccc32)ccc1Cl [Example 29, 1-(4'-chloro-3'-sulfamoylbenzoyl)amino-2-phenyl-5-trifluoromethylbenzimidazole] | 105 | 101 | 97 | 2.9 | 
10 | NS(=O)(=O)c1cc(C(=O)Nn2cnc3cc(C(F)(F)F)ccc32)ccc1Cl [Example 26, 1-(4'-chloro-3'-sulfamoylbenzoyl)amino-5-trifluoromethylbenzimidazole] | 106 | 108 | 107 | 4.0 | 
11 | COC(=O)c1ccc2c(c1)nc(C)n2NC(=O)c1ccc(Cl)c(S(N)(=O)=O)c1 [Example 32, 1-(4'-chloro-3'-sulfamoylbenzoyl)amino-5-methoxycarbonyl-2-methylbenzimidazole] | 115 | 121 | 117 | 3.2 | 
12 | CSc1nc2cc(C(F)(F)F)ccc2n1NC(=O)c1ccc(Cl)c(S(N)(=O)=O)c1 [Example 30, 1-(4'-chloro-3'-sulfamoylbenzoyl)-amino-2-methylthio-5-trifluoromethylbenzimidazole] | 108 | 106 | 114 | 3.0 | 
13 | NS(=O)(=O)c1cc(C(=O)Nn2c(=S)[nH]c3cc(C(=O)O)ccc32)ccc1Cl.O [Example 1, 1-(4'-chloro-3'-sulfamoylbenzoyl)amino-5-carboxybenzimidazole-2-thione monohydrate] | 122 | 152 | 148 | 4.6 | Hypotension 6 hours following treatment, % ([3]; single oral dose 5 mg/kg): 14.3%; Hypotension 6 hours following treatment [3, 8]: 31 mmHg; Hypotension 12 hours following treatment [3, 8]: 45 mmHg; Hypotension 12 hours following treatment, % ([3]; single oral dose 5 mg/kg, monohydrate, 5 mg/kg): 21.1% and 20.1%; Hypotension 24 hours following treatment, % ([3]; single oral dose 5 mg/kg): 13.8%; Hypotension 24 hours following treatment [3, 8]: 30 mmHg; deterioration of the glucose tolerance ([4]; even in a high dose (30 mg/kg)): does not induce any deterioration; effect on the cholesterol level of the serum ([4]; in vivo): no significant effect; effect on the uric acid concentration of the serum ([4]; in vivo): no significant effect; discharged urine volume as well as ion diuresis ([1]; 5 mg/kg oral, compared with Dihydrochlorothiazide and Furosemide): particularly advantageous; Na/K index ([1]; 5 mg/kg oral, result in words): highly preferable
14 | NS(=O)(=O)c1cc(C(=O)O)c(NCc2ccco2)cc1Cl [Furosemide, reference compound] | 105 | 106 | 107 | 2.7 | Hypotension 6 hours following treatment, % ([3]; single oral dose 100 mg/kg): 25.3%; Hypotension 6 hours following treatment [3, 9]: 51 mmHg; Hypotension 12 hours following treatment, % ([3]; single oral dose 100 mg/kg): 19.4%; Hypotension 12 hours following treatment [3, 9]: 39 mmHg; Hypotension 24 hours following treatment, % ([3]; single oral dose 100 mg/kg): 1.5%; Hypotension 24 hours following treatment [3, 9]: 3 mmHg; diuretic effect in the 7 to 24 hours' period ([2]; 7 to 24 hours' period): low
15 | NS(=O)(=O)c1cc(C(=O)Nn2c(=O)[nH]c3cc(C(=O)O)ccc32)ccc1Cl [Example 7, 1-(4'-chloro-3'-sulfamoylbenzoyl)-amino-5-carboxybenzimidazolone] | 110 | 133 | 129 | 3.7 | 
